Source: patent US3984410A, “Isourea acetylphosphate insecticides” (priority 1975, dated 1976)
Values after ≈ are worked out from the molar mass of the structure shown. Where two headings read alike, the source gives them in different places.

What was measured:
Type in all cases: in vivo
[1] = system: housefly (Musca domestica L.); experiment: Housefly mortality, residue on aluminum dishes; details: 25 3-day old female houseflies; mortality after 48 hours
Procedure: Test compounds are diluted in acetone and aliquots are pipetted onto the bottom of 55 × 15 mm aluminum dishes. To insure even spreading of the chemical on the bottom of the dishes, 1 ml of acetone containing 0.02% peanut oil is also added to each dish. After all solvents have evaporated the dishes are placed in circular cardboard cages containing 25 3-day old female houseflies. The cages are covered on the bottom with cellophane and the top with tulle netting, and each contains a sugar-water saturated cotton plug for maintenance of the flies. Mortality is recorded after 48 hours. Test levels range from 100 μg/25 F. houseflies down to that at which approximately 50% mortality occurs.

[2] = system: Green Peach Aphid [Myzus persicae (Sulzer)]; experiment: Green Peach Aphid spray on radish plants; details: sprayed to runoff on radish plants; mortality after 48 hours
Procedure: Radish plants (Rhaphanus sativus), approximately 2 cm tall, are transplanted into sandy loam soil in 3-inch clay pots and infested with 25-50 green peach aphids of mixed ages. Twenty-four hours later they are sprayed, to the point of runoff, with 50--50 acetone-water solutions of the test chemicals. Treated plants are held in the greenhouse and mortality is recorded after 48 hours. Test concentrations range from 0.05% down to that at which 50% mortality occurs.

[3] = system: Black Bean Aphid [Aphis fabae (Scop.)]; experiment: Direct Spray Assay on Black Bean Aphid; details: direct spray on nasturtium plants; mortality after 7 days
Procedure: Nasturtium plants (Tropaeolum sp.), approximately 5 cm tall, are transplanted into sandy loam soil in 3-inch clay pots and infested with 25-50 black bean aphids of mixed ages. Twenty-four hours later they are sprayed, to the point of runoff, with 50--50 acetone-water solutions of the test chemicals. Treated plants are held in the greenhouse and mortality is recorded after 7 days. Test concentrations range from 0.05% down to that at which 50% mortality occurs.

[4] = system: Black Bean Aphid [Aphis fabae (Scop.)]; experiment: Systemic Assay on Black Bean Aphid; details: 168 h, read-out: Insecticide Activity - Approximate LD50, BAS (Black Bean Aphid - systemic)
Procedure: Test chemicals are diluted in acetone and aliquots are thoroughly mixed into 500 grams of dry, sandy loam soil. The treated soil is placed in a pint ice cream carton and a nasturtium plant (Tropaeolum sp.) approximately 5 cm tall is transplanted into each carton. The plants are then infested with approximately 25 black bean aphids of mixed ages and placed in the greenhouse. Seven days later mortality is recorded. Test concentrations range from 10 PPM down to that at which approximately 50% mortality occurs.

[5] = system: Lygus Bug [Lygus hesperus (Knight)]; experiment: Lygus Bug spray; details: spray on adult bugs; mortality after 48 hours
Procedure: Test compounds are in a 50--50 acetone-water solution. Two cc of the solutions are sprayed through a Devilbiss type EGA hand spray gun into circular cardboard cages containing one string bean pod and ten adult lygus bugs. The test cages are covered on the bottom with cellophane and the top with tulle netting. Percent mortality is recorded 48 hours later. Test concentrations range from 0.05% down to that at which approximately 50% mortality occurs.

[6] = system: German Cockroach [Blattella germanica (Linne)]; experiment: German Cockroach spray
Procedure: Test compounds are diluted in a 50--50 acetone-water solution. Two cc of the solutions are sprayed through a DeVilbiss type EGA hand spray gun into circular cardboard cages containing 10 l-month-old German cockroach nymphs. The test cages are covered on the bottom with cellophane and the top with tulle netting. Percent mortality is recorded 7 days later. Test concentrations range from 0.1% down to that at which approximately 50% mortality occurs.

[7] = system: Southern House Mosquito [Culex pipiens quinquefasciatus (Say)]; experiment: Southern House Mosquito larvae in aqueous solution; details: 48 h, read-out: Insecticide Activity - Approximate LD50, MOS (Southern House Mosquito)
Procedure: Insecticidal activity is determined using third-instar larvae of the mosquito (Culex pipiens quinquefasciatus). Ten larvae are placed in a 6-ounce, number 67 Dixie wax paper cup containing 100 ml of an aqueous solution of the test chemical. The treated larvae are stored at 70°F, and 48 hours later the mortality is recorded. Test concentrations range from 0.5 PPM down to that at which approximately 50% mortality occurs.

[8] = system: Cabbage Looper [Trichoplusia ni (Hubner)]; experiment: Cabbage Looper on dipped squash cotyledons; details: second-instar larvae, cotyledon dip; 48 hours plus 5 days
Procedure: (§1) Test compounds are diluted in a 50--50 acetone-water solution. Cotyledons of hyzini squash (Calabacita abobrinha), approximately 1 × 1.5 inches, are immersed in the test solutions for 2-3 seconds and placed on a wire screen to dry. The dried leaves are placed in petri dishes containing a moistened piece of filter paper and infested with five second-instar cabbage looper larvae. Mortality of the larvae is recorded 48 hours later, and a piece of synthetic media is added to dishes containing survivors. These are then held for 5 additional days to observe for any delayed effects of the test chemicals. Test concentrations range from 0.1% down to that at which approximately 50% mortality occurs.

[9] = system: Tobacco Budworm [Heliothis virescens (F.)]; experiment: Tobacco Budworm on dipped Romaine lettuce leaves; details: larvae, Romaine lettuce leaf dip; 48 hours plus 5 days
Procedure: as §1
The procedure is the same as that used for the cabbage looper, except that sections of Romaine lettuce (Latica sativa) leaves were used instead of cotyledons of hyzini squash.

[10] = systemic, chemical in soil, mortality after 7 days
[11] = spray on 1-month-old nymphs, mortality after 7 days

Row | SMILES | Insecticide Activity - Approximate LD50, HF (Housefly) [1] [μg/25 F.] | Insecticide Activity - Approximate LD50, GPA (Green Peach Aphid) [2] | Insecticide Activity - Approximate LD50, BA (Black Bean Aphid - direct spray) [3] | LC50 [4, 10] [mg/L] | Insecticide Activity - Approximate LD50, LB (Lygus Bug) [5] | Insecticide Activity - Approximate LD50, GR (German Cockroach) [6, 11] | LC50 [7] [mg/L] | Insecticide Activity - Approximate LD50, CL (Cabbage Looper) [8] | Insecticide Activity - Approximate LD50, TBW (Tobacco Budworm) [9] | LC50 ([4]; soil) [mg/L] | Insecticide Activity - Approximate LD50, GR (German Cockroach) ([6]; 168 h)
1 | C=CCN(CC=C)C(=NC(=O)CSP(=S)(OCC)OCC)OC [Compound 1, N,N-Diallyl-N'-(O,O-diethylphosphorodithioylacetyl)-O-methylisourea] | 10 | > .05% | .003% | 3 (≈ 7.88 µM) | .05% | > .1% | 1 (≈ 2.63 µM) | – | – | – | –
2 | C=CCN(CC=C)C(=NC(=O)CSP(=S)(OC)OC)OC [Compound 2] | 8 | – | .008% | 5 (≈ 14.2 µM) | > .05% | > .1% | > 1 | – | – | – | –
3 | CCOP(=S)(OCC)SCC(=O)N=C(OC)N1CCCCC1 [Compound 3] | 25 | .008% | .001% | > 10 | .05% | > .1% | 1 (≈ 2.71 µM) | > .1% | > .1% | – | –
4 | CCOP(=S)(OCC)SCC(=O)N=C(OC)N1CCOCC1 [Compound 4, N-morpholino-N'-(O,O-diethylphosphorodithioylacetyl)-O-methylisourea] | 27 | > .05% | .0008% | 5 (≈ 13.5 µM) | .05% | > .1% | > 1 | – | – | – | –
5 | CCOP(=S)(OCC)SCC(=O)N=C(OC)N(CC)CC [Compound 5] | 23 | .03% | .001% | > 10 | > .05% | .1% | > 1 | > .1% | > .1% | – | –
6 | CCN(CC)C(=NC(=O)CSP(=S)(OC)OC)OC [Compound 6] | 24 | > .05% | .05% | – | > .05% | > .1% | > 1 | > .1% | > .1% | – | –
7 | CCOP(=S)(OCC)SCC(=O)N=C(OC)N(C)c1ccccc1 [Compound 8] | 30 | .03% | .0008% | – | > .05% | – | > 1 | > .1% | .1% | > 1 | > .05%
8 | C=CCN(C(=NC(=O)CSP(=S)(OCC)OCC)OC)c1ccccc1 [Compound 10] | 10 | – | > .05% | – | .05% | > .1% | > 1 | > .1% | > .1% | – | –
9 | C=CCN(C(=NC(=O)CSP(=S)(OC)OC)OC)c1ccccc1 [Compound 11] | 30 | .03% | .005% | > 10 | > .05% | > .1% | > 1 | > .1% | > .1% | – | –
10 | CCOP(=S)(OCC)SCC(=O)N=C(OC)N(C)Cc1ccccc1 [Compound 12] | 24 | – | > .05% | – | > .05% | > .1% | > 1 | > .1% | > .1% | – | –
11 | COC(=NC(=O)CSP(=S)(OC)OC)N(C)Cc1ccccc1 [Compound 13] | 30 | – | > .05% | – | > .05% | > .1% | > 1 | > .1% | > .1% | – | –
12 | CCOP(=S)(OCC)SCC(=O)N=C(OC)N(CC)c1ccccc1 [Compound 15] | 30 | .03% | .005% | 2 (≈ 4.94 µM) | > .05% | > .1% | > 1 | .1% | > .1% | – | –
13 | CCN(C(=NC(=O)CSP(=S)(OC)OC)OC)c1ccccc1 [Compound 16] | 25 | – | .03% | > 10 | > .05% | > .1% | > 1 | .1% | > .1% | – | –
14 | CCOP(=S)(OCC)SCC(=O)N=C(OC)N(CC)c1cccc(C)c1 [Compound 18] | 22 | .005% | .0005% | 5 (≈ 11.9 µM) | > .05% | .1% | > 1 | > .1% | .1% | – | –
